Patent US12686680B2, “Substituted pyrazolo[1,5-α]pyrimidines as CRF receptor antagonists” (Neurocrine Biosciences, Inc., priority 2019, dated 2026)
Structures can show the parent of a compound that is named as a salt. Blank lines part the entries; values can stand above or below the compound they belong to.

Legend:
[1] = Solubility determination of Compound 1 Form I in various vehicles (Example 60); format: physicochemical
Procedure: The solubility of Compound 1 Form I was evaluated in various vehicles in an attempt to achieve doses of 0.5 mg/mL (IV) and 1.0 mg/mL (PO). […] Vortex mixing and sonication were used to dissolve particles, then samples were transferred to 0.22 μm nylon centrifuge tube filters and centrifuged for approximately 2 minutes @10,000 rpm. All samples were diluted with the method diluent (if necessary) and analyzed by HPLC providing the results shown in the below Table.

[2] = Solubility determination of solid forms of Compound 1 in solvents (Example 52); format: physicochemical
Excerpt: X-Ray Powder diffraction (XRPD), differential scanning calorimetry (DSC), thermal gravimetric analysis (TGA), and UV-Metric/pH-Metric Titration (SiriusT3) were used to characterize Form I of Compound 1. UPLC was used to evaluate solubility of each material in various vehicles.

- Final/Actual pH ([1]; 50 mM Citrate, pH 2): 3.1
- Solubility <USP 34> ([1]; 50 mM Citrate, pH 2): Slightly Soluble
- [Compound 1] ([1]; 50 mM Citrate, pH 2): 3.3 mg/mL
- Final/Actual pH ([1]; 50 mM Citrate, pH 3): 3.3
- Solubility <USP 34> ([1]; 50 mM Citrate, pH 3): Slightly Soluble
- [Compound 1] ([1]; 50 mM Citrate, pH 3): 1.7 mg/mL
- Final/Actual pH ([1]; 50 mM Citrate, pH 4): 4.1
- Solubility <USP 34> ([1]; 50 mM Citrate, pH 4): Practically
- [Compound 1] ([1]; 50 mM Citrate, pH 4): ~0 mg/mL
- Final/Actual pH ([1]; 50 mM Citrate, pH 5): 5.0
- Solubility <USP 34> ([1]; 50 mM Citrate, pH 5): Practically
- [Compound 1] ([1]; 50 mM Citrate, pH 5): ~0 mg/mL
- Final/Actual pH ([1]; 50 mM Citrate, pH 6): 6.1
- Solubility <USP 34> ([1]; 50 mM Citrate, pH 6): Practically
- [Compound 1] ([1]; 50 mM Citrate, pH 6): ~0 mg/mL
- Final/Actual pH ([1]; 50 mM Citrate, pH 7): 7.1
- Solubility <USP 34> ([1]; 50 mM Citrate, pH 7): Practically
- [Compound 1] ([1]; 50 mM Citrate, pH 7): ~0 mg/mL
- Final/Actual pH ([1]; 50 mM Phosphate, pH 8): 8.1
- Solubility <USP 34> ([1]; 50 mM Phosphate, pH 8): Practically
- [Compound 1] ([1]; 50 mM Phosphate, pH 8): Below
- Final/Actual pH ([1]; 1% Poloxamer 188 in Water): 8.0
- Solubility <USP 34> ([1]; 1% Poloxamer 188 in Water): Practically
- [Compound 1] ([1]; 1% Poloxamer 188 in Water): ~0 mg/mL
- Final/Actual pH ([1]; 1% TW80 in Water): 7.6
- Solubility <USP 34> ([1]; 1% TW80 in Water): Practically
- [Compound 1] ([1]; 1% TW80 in Water): ~0 mg/mL
- Final/Actual pH ([1]; 10% HP-β-CD in Water): 8.2
- Solubility <USP 34> ([1]; 10% HP-β-CD in Water): Practically
- [Compound 1] ([1]; 10% HP-β-CD in Water): ~0 mg/mL
- Final/Actual pH ([1]; 100% Water): 8.3
- Solubility <USP 34> ([1]; 100% Water): Practically
- [Compound 1] ([1]; 100% Water): ~0 mg/mL
Compound: CCCN(Cc1ccc(-c2csc(N(C)C)n2)cc1)c1cc(C)nc2c(-c3cnc(N(C)C)cc3C)c(C)nn12 [Compound 1 Form I, 5-{7-[({4-[2-(dimethylamino)-1,3-thiazol-4-yl]phenyl}methyl)(propyl)amino]-2,5-dimethylpyrazolo[1,5-a]pyrimidin-3-yl}-N,N,4-trimethylpyridin-2-amine]

- Measured pH ([2]; 50 mM CB pH 3): pH 3.3
- Solubility ([2]; 50 mM CB pH 3): 1.7 mg/mL FB
- Measured pH ([2]; 50 mM CB pH 4): pH 4.1
- Solubility ([2]; 50 mM CB pH 4): 0 mg/mL FB
- Measured pH ([2]; 50 mM CB pH 5): pH 5.0
- Solubility ([2]; 50 mM CB pH 5): 0 mg/mL FB
- Measured pH ([2]; 50 mM CB pH 6): pH 6.1
- Solubility ([2]; 50 mM CB pH 6): 0 mg/mL FB
- Measured pH ([2]; 50 mM PB pH 2): pH 3.1
- Solubility ([2]; 50 mM PB pH 2): 3.3 mg/mL FB
- Measured pH ([2]; 50 mM PB pH 7): pH 7.1
- Solubility ([2]; 50 mM PB pH 7): 0 mg/mL FB
- Measured pH ([2]; 50 mM PB pH 8): pH 8.1
- Solubility ([2]; 50 mM PB pH 8): 0 mg/mL FB
- Measured pH ([2]; 100% H2O): pH 8.3
- Solubility ([2]; 100% H2O): 0 mg/mL FB
Compound: CCCN(Cc1ccc(-c2csc(N(C)C)n2)cc1)c1cc(C)nc2c(-c3cnc(N(C)C)cc3C)c(C)nn12 [Compound 1-2 (FB), 5-{7-[({4-[2-(dimethylamino)-1,3-thiazol-4-yl]phenyl}methyl)(propyl)amino]-2,5-dimethylpyrazolo[1,5-a]pyrimidin-3-yl}-N,N,4-trimethylpyridin-2-amine]

- Measured pH ([2]; 50 mM BB pH 9): pH 4.3
- Solubility ([2]; 50 mM BB pH 9): Below
- Measured pH ([2]; 50 mM CB pH 3): pH 3.2
- Solubility ([2]; 50 mM CB pH 3): 0.3 mg/mL FB
- Measured pH ([2]; 50 mM CB pH 4): pH 3.9
- Solubility ([2]; 50 mM CB pH 4): 0 mg/mL FB
- Measured pH ([2]; 50 mM CB pH 6): pH 5.3
- Solubility ([2]; 50 mM CB pH 6): Below
- Measured pH ([2]; 50 mM PB pH 2): pH 2.5
- Solubility ([2]; 50 mM PB pH 2): 3.9 mg/mL FB
- Measured pH ([2]; 50 mM PB pH 8): pH 6.2
- Solubility ([2]; 50 mM PB pH 8): Below
- Measured pH ([2]; 100% H2O): pH 3.4
- Solubility ([2]; 100% H2O): 0 mg/mL FB
- Solubility ([2]; ACN): 3.6 mg/mL FB
- Solubility ([2]; Acetone): 4.1 mg/mL FB
- Solubility ([2]; DMSO): >2.5 mg/mL FB
- Solubility ([2]; EtOAc): 1.2 mg/mL FB
- Solubility ([2]; EtOH): 6.5 mg/mL FB
- Solubility ([2]; IPA): 1.9 mg/mL FB
- Solubility ([2]; MeOH): 27.1 mg/mL FB
Compound: CCCN(Cc1ccc(-c2csc(N(C)C)n2)cc1)c1cc(C)nc2c(-c3cnc(N(C)C)cc3C)c(C)nn12 [Compound 1-4 (Maleate), 5-{7-[({4-[2-(dimethylamino)-1,3-thiazol-4-yl]phenyl}methyl)(propyl)amino]-2,5-dimethylpyrazolo[1,5-a]pyrimidin-3-yl}-N,N,4-trimethylpyridin-2-amine]

- Measured pH ([2]; 50 mM BB pH 9): pH 8.7
- Solubility ([2]; 50 mM BB pH 9): Below
- Measured pH ([2]; 50 mM CB pH 3): pH 3.2
- Solubility ([2]; 50 mM CB pH 3): 0.8 mg/mL FB
- Measured pH ([2]; 50 mM CB pH 4): pH 3.9
- Solubility ([2]; 50 mM CB pH 4): 0 mg/mL FB
- Measured pH ([2]; 50 mM CB pH 6): pH 5.8
- Solubility ([2]; 50 mM CB pH 6): 0 mg/mL FB
- Measured pH ([2]; 50 mM PB pH 2): pH 2.9
- Solubility ([2]; 50 mM PB pH 2): 4.4 mg/mL FB
- Measured pH ([2]; 50 mM PB pH 8): pH 7.5
- Solubility ([2]; 50 mM PB pH 8): 0 mg/mL FB
- Measured pH ([2]; 100% H2O): pH 3.3
- Solubility ([2]; 100% H2O): 0.4 mg/mL FB
- Solubility ([2]; ACN): 0.7 mg/mL FB
- Solubility ([2]; Acetone): 0.4 mg/mL FB
- Solubility ([2]; DMSO): 0.9 mg/mL FB
- Solubility ([2]; EtOAc): 0.1 mg/mL FB
- Solubility ([2]; EtOH): 5.3 mg/mL FB
- Solubility ([2]; IPA): 0.8 mg/mL FB
- Solubility ([2]; MeOH): 32.3 mg/mL FB
Compound: CCCN(Cc1ccc(-c2csc(N(C)C)n2)cc1)c1cc(C)nc2c(-c3cnc(N(C)C)cc3C)c(C)nn12 [Compound 1-3 (HCl), 5-{7-[({4-[2-(dimethylamino)-1,3-thiazol-4-yl]phenyl}methyl)(propyl)amino]-2,5-dimethylpyrazolo[1,5-a]pyrimidin-3-yl}-N,N,4-trimethylpyridin-2-amine]

- Solubility ([2]; 50 mM CB pH 3): 1.7 mg/mL FB
- Measured pH ([2]; 50 mM CB pH 4): pH 4.1
- Solubility ([2]; 50 mM CB pH 4): 0 mg/mL FB
- Measured pH ([2]; 50 mM CB pH 5): pH 4.4
- Solubility ([2]; 50 mM CB pH 5): 0 mg/mL FB
- Measured pH ([2]; 50 mM CB pH 6): pH 6.1
- Solubility ([2]; 50 mM CB pH 6): 0 mg/mL FB
- Solubility ([2]; 50 mM PB pH 1): 14.9 mg/mL FB
- Measured pH ([2]; 50 mM PB pH 2): pH 2.7
- Solubility ([2]; 50 mM PB pH 2): 6.5 mg/mL FB
- Measured pH ([2]; 50 mM PB pH 7): pH 7.0
- Solubility ([2]; 50 mM PB pH 7): 0 mg/mL FB
- Measured pH ([2]; 100% H2O): pH 6.7
- Solubility ([2]; 100% H2O): 0 mg/mL FB
Compound: CCCN(Cc1ccc(-c2csc(N(C)C)n2)cc1)c1cc(C)nc2c(-c3cnc(N(C)C)cc3C)c(C)nn12 [Compound 1-1 (FB), 5-{7-[({4-[2-(dimethylamino)-1,3-thiazol-4-yl]phenyl}methyl)(propyl)amino]-2,5-dimethylpyrazolo[1,5-a]pyrimidin-3-yl}-N,N,4-trimethylpyridin-2-amine]

- Measured pH ([2]; 50 mM BB pH 9): pH 3.2
- Solubility ([2]; 50 mM BB pH 9): 0.2 mg/mL FB
- Measured pH ([2]; 50 mM CB pH 3): pH 3.4
- Solubility ([2]; 50 mM CB pH 3): 1.0 mg/mL FB
- Measured pH ([2]; 50 mM CB pH 4): pH 4.0
- Solubility ([2]; 50 mM CB pH 4): 0.1 mg/mL FB
- Measured pH ([2]; 50 mM CB pH 6): pH 5.1
- Solubility ([2]; 50 mM CB pH 6): 0 mg/mL FB
- Measured pH ([2]; 50 mM PB pH 2): pH 3.0
- Solubility ([2]; 50 mM PB pH 2): 4.7 mg/mL FB
- Measured pH ([2]; 50 mM PB pH 8): pH 6.7
- Solubility ([2]; 50 mM PB pH 8): 0 mg/mL FB
- Measured pH ([2]; 100% H2O): pH 3.5
- Solubility ([2]; 100% H2O): 0.8 mg/mL FB
- Solubility ([2]; ACN): 3.1 mg/mL FB
- Solubility ([2]; Acetone): 1.0 mg/mL FB
- Solubility ([2]; DMSO): >2.1 mg/mL FB
- Solubility ([2]; EtOAc): 0.6 mg/mL FB
- Solubility ([2]; EtOH): 16.6 mg/mL FB
- Solubility ([2]; IPA): 2.3 mg/mL FB
- Solubility ([2]; MeOH): 134.4 mg/mL FB
Compound: CCCN(Cc1ccc(-c2csc(N(C)C)n2)cc1)c1cc(C)nc2c(-c3cnc(N(C)C)cc3C)c(C)nn12 [Compound 1-5 (Mesylate), 5-{7-[({4-[2-(dimethylamino)-1,3-thiazol-4-yl]phenyl}methyl)(propyl)amino]-2,5-dimethylpyrazolo[1,5-a]pyrimidin-3-yl}-N,N,4-trimethylpyridin-2-amine]
